In article PMC12377721 (2025) one finds binding and KD data, which are given here for eight molecules.

Assay in all cases: ITC
Conditions in all cases: 500 mM NaCl, 20 mM MgCl2; 50 mM Tris pH 7.6, 25 °C

The test system of assay [1] is 1301b_v1 (DNA, aptamer) CGACGTTTGCGATGAGAACGAAGTTCGAAGGTCG
For assay [2], the system named is wild-type 1301b (DNA, aptamer) ACGACGTTTGCGATGAGAAACGTATGGTTTCGAAGGTCGT
The subject of assay [3] is 9/10/14/16^OMe (DNA, aptamer, 2'-O-methyl at G9, C10, G14, G16) CGACGTTTGCGATGAGAACGAAGTTCGAAGGTCG

Molecules are shown by their SMILES.

`Cc1cn([C@H]2C[C@H](O)[C@@H](COP(=O)(O)OP(=O)(O)OP(=O)(O)O)O2)c(=O)[nH]c1=O`: in assay [1], the binding entry is recorded as “no”. On the same count and under the same terms, for `Nc1ccn([C@@H]2O[C@H](COP(=O)(O)OP(=O)(O)OP(=O)(O)O)[C@@H](O)[C@H]2O)c(=O)n1` the value was “no”; for `Nc1nc2c(ncn2[C@@H]2O[C@H](COP(=O)(O)OP(=O)(O)OP(=O)(O)O)[C@@H](O)[C@H]2O)c(=O)[nH]1`, “no”. A word on the KD: it is the constant that tells how readily two partners part at equilibrium. Higher therefore signals lower affinity. As for `Nc1ncnc2c1ncn2[C@@H]1O[C@H](COP(=O)(O)O)[C@@H](O)[C@H]1O`, the KD in assay [1] was 13.2 ± 2.4 µM. That is a double-digit micromolar value.

As for `Nc1ncnc2c1ncn2[C@@H]1O[C@H](COP(=O)(O)OP(=O)(O)O)[C@@H](O)[C@H]1O`, the KD in assay [1] is reported as 4.4 ± 0.3 µM.

Turning to `Nc1ncnc2c1ncn2[C@@H]1O[C@H](COP(=O)(O)OP(=O)(O)OP(=O)(O)O)[C@@H](O)[C@H]1O`, the figures for the KD in assay [2], in assay [1] and in assay [3] were 2.7 ± 0.6 µM, 1.9 ± 0.1 µM and 3.8 ± 0.4 µM, respectively.

For the molecule `Nc1ncnc2c1ncn2[C@H]1C[C@H](O)[C@@H](COP(=O)(O)OP(=O)(O)OP(=O)(O)O)O1`, the KD in assay [1] was 3.4 ± 0.2 µM. Consider `O=c1ccn([C@@H]2O[C@H](COP(=O)(O)OP(=O)(O)OP(=O)(O)O)[C@@H](O)[C@H]2O)c(=O)[nH]1`, for which, in assay [1], the binding result is on record as “no”.
